According to patent US20150218212A1, “FLUORINATED EPOXYKETONE-BASED TETRAPEPTIDE COMPOUNDS AND USES THEREOF AS PROTEASOME INHIBITORS” (FLUORINOV PHARMA INC., priority 2012, published 2015):

Legend:
Type in all cases: cell-based, human
[1] = tested on: OVCAR-5; experiment: NCI screening panel, OVCAR-5 (Ovarian Cancer)
Experimental: (§1) Representative compounds of Formula I were screened using the National Cancer Institute (NCI) screening panel, which consists of a panel of human tumor cell lines, representing leukemia, melanoma, and cancers of the lung, colon, ovary, breast, prostate and renal system.
(§2) After 24 h, two plates of each cell line are fixed in situ with TCA, to represent a measurement of the cell population for each cell line at the time of drug addition (Tz). Experimental drugs are solubilised in dimethyl sulfoxide at 400-fold the desired final maximum test concentration and stored frozen prior to use. At the time of drug addition, an aliquot of frozen concentrate is thawed and diluted to twice the desired final maximum test concentration with complete medium containing 50 μg/mL gentamicin. Additional four, 10-fold or ½ log serial dilutions are made to provide a total of five drug concentrations plus control. Aliquots of 100 μl of these different drug dilutions are added to the appropriate microtiter wells already containing 100 μl of medium, resulting in the required final drug concentrations.
(§3) Following drug addition, the plates are incubated for an additional 48 h at 37° C., 5% CO2, 95% air, and 100% relative humidity. For adherent cells, the assay is terminated by the addition of cold TCA (trichloroacetic acid). Cells are fixed in situ by the gentle addition of 50 μl of cold 50% (w/v) TCA (final concentration, 10% TCA) and incubated for 60 minutes at 4° C. The supernatant is discarded, and the plates are washed five times with tap water and air dried. Sulforhodamine B (SRB) solution (100 μl) at 0.4% (w/v) in 1% acetic acid is added to each well, and plates are incubated for 10 minutes at room temperature. After staining, unbound dye is removed by washing five times with 1% acetic acid and the plates are air dried. Bound stain is subsequently solubilised with 10 mM trizma base, and the absorbance is read on an automated plate reader at a wavelength of 515 nm. For suspension cells, the methodology is the same except that the assay is terminated by fixing settled cells at the bottom of the wells by gently adding 50 μl of 80% TCA (final concentration, 16% TCA). Using the seven absorbance measurements [time zero, (Tz), control growth, (C), and test growth in the presence of drug at the five concentration levels (Ti)], the percentage growth is calculated at each of the drug concentrations levels. Percentage growth inhibition is calculated as: [(Ti−Tz)/(C−Tz)]×100 for concentrations for which Ti>/=Tz and [(Ti−Tz)/Tz]×100 for concentrations for which Ti<Tz.
(§4) Three dose response parameters are calculated for each experimental agent. Growth inhibition of 50% (GI50) is calculated from [(Ti−Tz)/(C−Tz)]×100=50, which is the drug concentration resulting in a 50% reduction in the net protein increase (as measured by SRB staining) in control cells during the drug incubation. The drug concentration resulting in total growth inhibition (TGI) is calculated from Ti=Tz. The LC50 (concentration of drug resulting in a 50% reduction in the measured protein at the end of the drug treatment as compared to that at the beginning) indicating a net loss of cells following treatment is calculated from [(Ti−Tz)/Tz]×100=−50. Values are calculated for each of these three parameters if the level of activity is reached. However, if the effect is not reached or is exceeded, the value for that parameter is expressed as greater or less than the maximum or minimum concentration tested.

[2] = tested on: NCI-H522; experiment: NCI screening panel, NCI-H522 (Non-Small Cell Lung Cancer)
Experimental: as §1, §2, §3, §4

[3] = tested on: HOP-62; experiment: NCI screening panel, HOP-62 (Non-Small Cell Lung Cancer)
Experimental: as §1, §2, §3, §4

[4] = tested on: NCI-H23; experiment: NCI screening panel, NCI-H23 (Non-Small Cell Lung Cancer)
Experimental: as §1, §2, §3, §4

[5] = tested on: HS 578T; experiment: NCI screening panel, HS 578T (Breast Cancer)
Experimental: as §1, §2, §3, §4

[6] = tested on: TK-10; experiment: NCI screening panel, TK-10 (Renal Cancer)
Experimental: as §1, §2, §3, §4

[7] = tested on: SK-MEL-2; experiment: NCI screening panel, SK-MEL-2 (Melanoma)
Experimental: as §1, §2, §3, §4

[8] = tested on: HL-60(TB); experiment: NCI screening panel, HL-60(TB) (Leukemia)
Experimental: as §1, §2, §3, §4

Structure (SMILES) | Log10GI50 [1] | Log10LC50 [1] | Log10TGI50 [1] | Log10GI50 [2] | Log10TGI50 [2] | Log10GI50 [3] | Log10LC50 [3] | Log10TGI50 [3] | Log10GI50 [4] | Log10LC50 [4] | Log10TGI50 [4] | Log10GI50 [5] | Log10TGI50 [5] | Log10GI50 [6] | Log10LC50 [6] | Log10TGI50 [6] | Log10GI50 [7] | Log10LC50 [7] | Log10TGI50 [7] | Log10GI50 [8] | other results
CC(C)C[C@H](NC(=O)[C@H](COC(F)F)NC(=O)CN1CCOCC1)C(=O)N[C@@H](COC(F)F)C(=O)N[C@@H](CC(C)C)C(=O)[C@@]1(C)CO1 [Example 1, (2S)—N-[(1S)-1-(difluoromethoxymethyl)-2-[[(1S)-3-methyl-1-[(2R)-2-methyloxirane-2-carbonyl]butyl]amino]-2-oxo-ethyl]-2-[[(2S)-3-(difluoromethoxy)-2-[(2-morpholinoacetyl)amino]propanoyl]amino]-4-methyl-pentanamide] | −7.39 | >−4.00 | −6.31 | −7.96 | −7.05 | −7.76 | −6.57 | −7.33 | −7.56 | >−4.00 | −6.68 | −7.72 | −7.01 | −6.53 | >−4.00 | −5.17 | −7.60 | >−4.00 | −7.03 | −7.49 | Log10LC50 [2]: −4.04; Log10LC50 [5]: >−4.00; Log10LC50 [8]: >−4.00; Log10TGI50 [8]: −6.30
CC(C)C[C@H](NC(=O)[C@H](COC(F)F)NC(=O)CN1CCOCC1)C(=O)N[C@@H](Cc1ccccc1)C(=O)N[C@@H](CC(C)C)C(=O)[C@@]1(C)CO1 [Example 2, (2S)-N-[(1S)-1-benzyl-2-[[(1S)-3-methyl-1-[(2R)-2-methyloxirane-2-carbonyl]butyl]-amino]-2-oxo-ethyl]-2-[[(2S)-3-(difluoromethoxy)-2-[(2-morpholinoacetyl)amino]propanoyl]amino]-4-methyl-pentanamide] | −7.47 | −4.54 | −6.70 | <−8.00 | −7.43 | −7.90 | −7.04 | −7.47 | −7.73 | >−4.00 | −6.67 | −7.71 | >−4.00 | −7.47 | >−4.00 | −5.73 | −7.66 | >−4.00 | −7.06 | −7.55 | Log10LC50 [8]: >−4.00; Log10TGI50 [8]: −6.11
CC(C)C[C@H](NC(=O)[C@H](COC(F)F)NC(=O)CN1CCOCC1)C(=O)N[C@@H](Cc1ccccc1)C(=O)N[C@@H](Cc1ccccc1)C(=O)[C@@]1(C)CO1 [Example 3, (2S)-N-[(1S)-1-benzyl-2-[[(1S)-1-benzyl-2-[(2R)-2-methyloxiran-2-yl]-2-oxo-ethyl]amino]-2-oxo-ethyl]-2-[[(2S)-3-(difluoromethoxy)-2-[(2-morpholinoacetyl)-amino]propanoyl]amino]-4-methyl-pentan-amide] | −7.42 | >−4.00 | −5.86 | <−8.00 | −7.55 | <−8.00 | −4.76 | −7.20 | <−8.00 | −4.33 | −6.69 | <−8.00 | −7.01 | −7.55 | >−4.00 | −5.91 | −7.92 | >−4.00 | −7.19 | −7.83 | Log10LC50 [2]: −6.18; Log10LC50 [5]: >−4.00; Log10LC50 [8]: >−4.00; Log10TGI50 [8]: −6.67
CC(C)C[C@H](NC(=O)[C@H](COC(F)F)NC(=O)CN1CCOCC1)C(=O)N[C@@H](COC(F)F)C(=O)N[C@@H](Cc1ccccc1)C(=O)[C@@]1(C)CO1 [Example 4, (2S)-N-[(1S)-2-[[(1S)-1-benzyl-2-[(2R)-2-methyloxiran-2-yl]-2-oxo-ethyl]amino]-1-(difluoromethoxymethyl)-2-oxo-ethyl]-2-[[(2S)-3-(difluoromethoxy)-2-[(2-mor-pholinoacetyl)amino]propanoyl]amino]-4 methyl-pentanamide] | −7.29 | >−4.00 | −6.07 | −7.75 | −7.11 | −7.65 | >−4.00 | −6.98 | −7.51 | −4.31 | −6.63 | −7.71 | −7.01 | −6.57 | >−4.00 | −5.48 | −7.57 | >−4.00 | −6.86 | −7.44 | Log10LC50 [2]: −6.06; Log10LC50 [5]: >−4.00; Log10LC50 [8]: >−4.00; Log10TGI50 [8]: −6.44
CC(C)C[C@H](NC(=O)[C@H](COC(F)F)NC(=O)[C@H](COC(F)F)NC(=O)[C@H](CCc1ccccc1)NC(=O)CN1CCOCC1)C(=O)[C@@]1(C)CO1 [Example 7, (2S)-N-[(1S)-1-(difluoromethoxymethyl)-2-[[(1S)-1-(difluoromethoxymethyl)-2-[[(1S)-3-methyl-1-[(2R)-2-methyloxirane-2-carbo-nyl]butyl]amino]-2-oxo-ethyl]amino]-2-oxo-ethyl]-2-[(2-morpholinoacetyl)amino]-4-phenyl-butanamide] | −7.31 | >−4.00 | −6.14 | −7.88 | −7.20 | −7.63 | >−4.00 | −7.00 | −7.57 | >−4.00 | −5.58 | −7.70 | −6.05 | −6.56 | >−4.00 | −5.24 | −7.54 | >−4.00 | −6.86 | −7.46 | Log10LC50 [2]: −4.62; Log10LC50 [5]: >−4.00; Log10LC50 [8]: >−4.00; Log10TGI50 [8]: −6.48
CC(C)C[C@H](NC(=O)[C@H](Cc1ccccc1)NC(=O)[C@H](COC(F)F)NC(=O)[C@H](COC(F)F)NC(=O)CN1CCOCC1)C(=O)[C@@]1(C)CO1 [Example 11, (2S)-2-[[(2S)-3-(difluoromethoxy)-2-[[(2S)-3-(difluoromethoxy)-2-[(2-morpholinoacetyl)-amino]propanoyl]amino]propanoyl]amino]-N-[(1S)-3-methyl-1-[(2R)-2-methyloxirane-2-carbonyl]butyl]-3-phenyl-propanamide] | −7.37 | >−4.00 | −6.46 | −7.72 | −7.15 | −7.56 | >−4.00 | −4.94 | −7.50 | >−4.00 | −5.55 | −7.70 | −6.97 | −6.80 | >−4.00 | −5.30 | −7.48 | >−4.00 | −6.68 | −7.46 | Log10LC50 [2]: >−4.00; Log10LC50 [5]: >−4.00; Log10LC50 [8]: >−4.00; Log10TGI50 [8]: −6.42
